Source: ChEMBL document CHEMBL1149855, “Dihydrobenzo[c]phenanthridine alkaloids from stem bark of Zanthoxylum nitidum” (J Nat Prod, 2008)
The source made the active and inactive calls.

How the values were obtained:
Type in all cases: functional, cell-based
MCF7 = experiment: Cytotoxicity against human MCF7 cells up to 29.2 ug/mL after 72 hrs by MTS reduction assay
NCI-H460 = experiment: Cytotoxicity against human NCI-H460 cells up to 29.2 ug/mL after 72 hrs by MTS reduction assay
SF-268 = experiment: Cytotoxicity against human SF268 cells up to 29.2 ug/mL after 72 hrs by MTS reduction assay

Measured: Activity

COc1ccc2c(c1OC)[C@H](CC1=C[C@H]3[C@H](C(C)C)CC[C@](C)(OC)[C@H]3CC1)N(C)c1c-2ccc2cc3c(cc12)OCO3
inactive: MCF7 | NCI-H460 | SF-268

COc1ccc2c(c1OC)[C@H](CC1=C[C@@H]3[C@@H](CC1)[C@](C)(OC)CC[C@H]3C(C)C)N(C)c1c-2ccc2cc3c(cc12)OCO3
inactive: MCF7 | NCI-H460 | SF-268

COc1ccc2c(c1OC)[C@@H](CC1=C[C@@H]3[C@@H](CC1)[C@@](C)(OC)CC[C@H]3C(C)C)N(C)c1c-2ccc2cc3c(cc12)OCO3
inactive: MCF7 | NCI-H460 | SF-268

COc1ccc2c(c1OC)[C@@H](CC1=C[C@H]3[C@H](C(C)C)CC[C@](C)(OC)[C@H]3CC1)N(C)c1c-2ccc2cc3c(cc12)OCO3
inactive: MCF7 | NCI-H460 | SF-268

COc1ccc2c(c1OC)[C@@H](CC1=C[C@@H]3[C@@H](CC1)[C@](C)(OC)CC[C@H]3C(C)C)N(C)c1c-2ccc2cc3c(cc12)OCO3
inactive: MCF7 | NCI-H460 | SF-268
